Laboratory results: ChEMBL document CHEMBL1201862, “PubChem BioAssay data set” (2004)
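Step 1: Grow cells in 96-well plates. Step 2: Expose to compound for 48 hours at 5 concentrations. Step 3: Interpolate endpoints linearly; if unreached, use highest concentration. Abbreviation: GI50, concentration required for 50% inhibition of growth.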 Active and inactive are the calls of the source. Cut-off read from the data, not from the text of the source: active = GI50 up to about 1.1 µM and inactive = higher.

Columns and labels:
Assay in all cases: NCI-60 cell line screen, 48 h
ACHN = system: ACHN
HOP-92 = system: HOP-92
SN12C = system: SN12C
SF-295 = system: SF-295
HCC 2998 = system: HCC 2998
CAKI-1 = system: CAKI-1
OVCAR-3 = system: OVCAR-3
K562 = system: K562
U-251 = system: U-251
NCI-H460 = system: NCI-H460
SW-620 = system: SW-620
MDA-MB-231 = system: MDA-MB-231
Hs-578T = system: Hs-578T
A549 = system: A549
NCI-H23 = system: NCI-H23
MCF7 = system: MCF7
MOLT-4 = system: MOLT-4
HL-60 = system: HL-60
OVCAR-5 = system: OVCAR-5
NCI/ADR-RES = system: NCI/ADR-RES
HCT-15 = system: HCT-15
NCI-H522 = system: NCI-H522
HCT-116 = system: HCT-116
SK-MEL-28 = system: SK-MEL-28
SNB-19 = system: SNB-19
NCI-H226 = system: NCI-H226
MDA-N = system: MDA-N
PC-3 = system: PC-3
CCRF-CEM = system: CCRF-CEM
SK-MEL-2 = system: SK-MEL-2
SK-MEL-5 = system: SK-MEL-5
A498 = system: A498
DU-145 = system: DU-145
BT-549 = system: BT-549
SF-539 = system: SF-539
HT-29 = system: HT-29
OVCAR-4 = system: OVCAR-4
M14 = system: M14
LOX IMVI = system: LOX IMVI
RPMI-8226 = system: RPMI-8226
SF-268 = system: SF-268
UACC-257 = system: UACC-257
MDA-MB-435 = system: MDA-MB-435
SK-OV-3 = system: SK-OV-3
COLO 205 = system: COLO 205
Malme-3M = system: Malme-3M
UO-31 = system: UO-31
T47D = system: T47D
786-0 = system: 786-0
OVCAR-8 = system: OVCAR-8
UACC-62 = system: UACC-62
HOP-62 = system: HOP-62
TK-10 = system: TK-10
RXF 393 = system: RXF 393
KM12 = system: KM12
IGROV-1 = system: IGROV-1
SR = system: SR
SNB-75 = system: SNB-75
EKVX = system: EKVX

Measured: GI50

Nc1ccc(Cc2c(N)[nH]c(=O)[nH]c2=O)cc1
> 100 µM: HCT-15
inactive: ACHN > 100 µM | HOP-92 > 100 µM | SN12C > 100 µM | SF-295 > 100 µM | HCC 2998 > 100 µM | CAKI-1 > 100 µM | OVCAR-3 > 100 µM | K562 > 100 µM | U-251 > 100 µM | NCI-H460 > 100 µM | SW-620 > 100 µM | MDA-MB-231 > 100 µM | Hs-578T > 100 µM | A549 > 100 µM | NCI-H23 > 100 µM | MCF7 > 100 µM | MOLT-4 1.61 µM | HL-60 85.5 µM | OVCAR-5 > 100 µM | NCI/ADR-RES > 100 µM | NCI-H522 > 100 µM | HCT-116 > 100 µM | SK-MEL-28 > 100 µM | SNB-19 > 100 µM | NCI-H226 86.1 µM | MDA-N > 100 µM | PC-3 > 100 µM | CCRF-CEM 39.5 µM | SK-MEL-2 > 100 µM | SK-MEL-5 > 100 µM | A498 47.3 µM | DU-145 > 100 µM | BT-549 > 100 µM | SF-539 > 100 µM | HT-29 > 100 µM | OVCAR-4 > 100 µM | M14 > 100 µM | LOX IMVI > 100 µM | RPMI-8226 > 100 µM | SF-268 > 100 µM | UACC-257 > 100 µM | MDA-MB-435 > 100 µM | SK-OV-3 > 100 µM | COLO 205 > 100 µM | Malme-3M > 100 µM | UO-31 > 100 µM | T47D > 100 µM | 786-0 > 100 µM | OVCAR-8 > 100 µM | UACC-62 > 100 µM

CC1CCC2(NC1)OC1CC3C4CC=C5CC(OC6OC(CO)C(OC7OC(C)C(O)C(O)C7O)C(O)C6OC6OC(C)C(O)C(O)C6O)CCC5(C)C4CCC3(C)C1C2C (centres undefined)
6.67 µM: HCT-15
inactive: ACHN 3.91 µM | HOP-92 3.69 µM | SN12C 2.24 µM | SF-295 2.08 µM | HCC 2998 2.16 µM | CAKI-1 4.36 µM | HOP-62 4.09 µM | OVCAR-3 1.96 µM | K562 4.11 µM | U-251 2.84 µM | TK-10 5.31 µM | NCI-H460 3.55 µM | SW-620 4.4 µM | RXF 393 4.05 µM | MDA-MB-231 3.78 µM | Hs-578T 3.87 µM | A549 3.15 µM | KM12 3.46 µM | NCI-H23 12.2 µM | IGROV-1 5.82 µM | MCF7 2.32 µM | MOLT-4 8.55 µM | HL-60 4.41 µM | OVCAR-5 5.66 µM | SR 3.08 µM | NCI-H522 1.7 µM | HCT-116 2.31 µM | SK-MEL-28 1.91 µM | SNB-19 11.1 µM | NCI-H226 2.46 µM | MDA-N 2.37 µM | PC-3 2.09 µM | CCRF-CEM 15 µM | SK-MEL-2 3.63 µM | SK-MEL-5 5.58 µM | A498 5.74 µM | DU-145 4 µM | BT-549 15.6 µM | SF-539 3.3 µM | HT-29 5.69 µM | OVCAR-4 2.54 µM | M14 2.39 µM | LOX IMVI 5.79 µM | RPMI-8226 12.8 µM | SF-268 2 µM | UACC-257 2.64 µM | MDA-MB-435 2.04 µM | SK-OV-3 7.18 µM | COLO 205 8.63 µM | SNB-75 2.5 µM | Malme-3M 2.46 µM | UO-31 7.45 µM | EKVX 2.5 µM | T47D 7.64 µM | 786-0 1.99 µM | OVCAR-8 2.88 µM | UACC-62 3.02 µM
